The results in this text go back to US20260274895A1, “DE NOVO DESIGNED MEMBRANE-TRAVERSING AND ORALLY BIOAVAILABLE MACROCYCLES” (UNIVERSITY OF WASHINGTON, priority 2022, published 2026).

The conditions of data set [1]: PAMPA, PAMPA_Papp_Avg (apparent permeability). On the technique in general: In PAMPA a lipid-coated filter parts donor from acceptor wells.
The conditions of data set [2]: PAMPA.
The nature of data set [3]: Plasma exposure, oral bioavailability and tolerability after single-dose IV, SQ and PO administration. To be noted: in vivo.
For data set [4] the following is noted: mouse, in vivo, iv.
For data set [5] the following is noted: mouse, in vivo.
A further data set is described as follows: in vivo. Particulars: male, Swiss Albino, mouse; for level at 0.08 h / level at 0.25 h / level at 0.5 h / level at 1 h / level at 3 h / level at 5 h / level at 8 h / level at 24 h: Plasma concentration.
Data set [6] can be described thus: Parallel artificial membrane permeability assay (PAMPA). Particulars: average of three replicates; 16-20 hours incubation, 5% DMSO PBS.

SMILES strings stand for the structures. Read-outs that look alike come from different tables or passages of the source. Where a SMILES comes first, the peptide text is derived from it. [ ]: non-standard residue; d: D form. dNMeI = CC[C@@H](C)[C@@H](NC)C(=O)O; NMeF = CN[C@@H](Cc1ccccc1)C(=O)O; dNMeF = CN[C@H](Cc1ccccc1)C(=O)O; NMeL = CN[C@@H](CC(C)C)C(=O)O; dNMeL = CN[C@H](CC(C)C)C(=O)O; dNMeV = CN[C@@H](C(=O)O)C(C)C; NMeV = CN[C@H](C(=O)O)C(C)C; NMeA = CN[C@@H](C)C(=O)O; dNMeA = CN[C@H](C)C(=O)O; Sar = CNCC(=O)O

What is called Papp is a coefficient for how fast a substance crosses the barrier. In general, bioavailability refers to dose-corrected exposure relative to a reference, in per cent. The low end stands for poor availability, the high end for good availability. The half-life is the time needed for the level to fall by half in the phase considered. A lower half-life goes with fast loss. In general, Vd refers to the apparent volume that relates the amount in the body to the concentration in plasma or blood. Read a high Vd as extensive tissue distribution.

In the case of `CC(C)C[C@@H]1C(=O)N[C@H](CC(C)C)C(=O)N2CCC[C@@H]2C(=O)N2CCC[C@H]2C(=O)N(C)[C@H](CC(C)C)C(=O)N[C@H](CC(C)C)C(=O)N2CCC[C@@H]2C(=O)N2CCC[C@H]2C(=O)N1C` [Design D8.4, pP*llpP*ll] (cyclo([dNMeL][dL][dP]P[dNMeL][dL][dP]P)), the apparent permeability coefficient (Papp) in data set [1] was found to be 0.358 nm/s. Moreover, in data set [2], the “PAMPA_Papp_Avg (apparent permeability)” value was found to be 1.36 nm/s.

`CC[C@@H](C)[C@H]1NC(=O)[C@@H]2CCCN2C(=O)[C@@H]([C@H](C)CC)NC(=O)CN(C)C(=O)[C@H](CC(C)C)NC(=O)[C@@H](Cc2ccccc2)NC(=O)[C@H](CC(C)C)N(C)C(=O)[C@H]2CCCN2C(=O)[C@@H](CC(C)C)NC(=O)[C@H](CC(C)C)NC(=O)[C@H]2CCCN2C1=O` [Design D11.2] (cyclo(L[Sar][dI]P[dI][dP]L[dL][dP][NMeL][dF])): in data set [3], the bioavailability is 7.5 to 11%.

Compound `CC[C@@H](C)[C@H]1NC(=O)[C@H]([C@@H](C)CC)NC(=O)[C@H](CC(C)C)N(C)C(=O)[C@H]2CCCN2C(=O)[C@@H]([C@H](C)CC)NC(=O)[C@@H]([C@H](C)CC)N(C)C(=O)[C@H](CC(C)C)NC(=O)[C@H]2CCCN2C(=O)[C@@H]2CCCN2C(=O)[C@H](C(C)C)NC(=O)[C@H]2CCCN2C1=O` [Design D11.3, VPpL*iip*LIip] (cyclo(I[dI][dP]VP[dP]L[dNMeI][dI][dP][NMeL])) showed a half-life in data set [4] of 5.58 h. Moreover, in data set [2], the “PAMPA_Papp_Avg (apparent permeability)” value is 14.8 nm/s. The F in data set [5] (10 mg/kg) amounted to 40.06%. In addition, in data set [5] (iv, 1 mg/kg), the AUC0-inf stood at 7.18715 µg·h/mL, the AUC0-last worked out at 6.96511 µg·h/mL, the AUCExtra is 3.09% and the C0 stood at 3.95756 µg/mL. For the same compound, in data set [5] (iv, 1 mg/kg), the Cl worked out at 0.139 L/h/kg, the MRT0-last is listed as 4.64 h, the T½ came to 5.58 h and the Vd is given as 1.12 L/kg. In data set [5] (po, 10 mg/kg), this compound showed an AUC0-inf of 28.79358 µg·h/mL, an AUC0-last of 28.24238 µg·h/mL, an AUCExtra of 1.91% and an MRT0-last of 6.32 h. In data set [5] (sc, 5 mg/kg), this compound showed an AUC0-inf of 3.04715 µg·h/mL, an AUC0-last of 2.12281 µg·h/mL, an AUCExtra of 30.33% and an MRT0-last of 10.71 h. In the data set “in vivo” (iv, 1 mg/kg), this compound came in with a level at 0.08 h of 3.75 µg/mL, a level at 0.25 h of 3.35 µg/mL, a level at 0.5 h of 2.01 µg/mL and a level at 1 h of 1.14 µg/mL. In addition, in the data set “in vivo” (iv, 1 mg/kg), the level at 3 h came out at 0.512 µg/mL, the level at 5 h came to 0.267 µg/mL, the level at 8 h came to 0.235 µg/mL and the level at 24 h is 0.0276 µg/mL. Also, in “in vivo” (po, 10 mg/kg), the level at 0.08 h stood at 0.0696 µg/mL, the level at 0.25 h stood at 0.75 µg/mL, the level at 0.5 h came out at 2.52 µg/mL and the level at 1 h stood at 2.96 µg/mL. In “in vivo” (po, 10 mg/kg), this compound yielded a level at 3 h of 3.5 µg/mL, a level at 5 h of 2.54 µg/mL, a level at 8 h of 1.48 µg/mL and a level at 24 h of 0.095 µg/mL. Also, in “in vivo” (sc, 5 mg/kg), the bioavailability turned out to be 8.48%, the level at 0.08 h was found to be 0.0124 µg/mL, the level at 1 h came to 0.0441 µg/mL and the level at 3 h is 0.128 µg/mL. Moreover, in “in vivo” (sc, 5 mg/kg), the level at 5 h turned out to be 0.148 µg/mL, the level at 8 h is 0.114 µg/mL and the level at 24 h amounted to 0.0576 µg/mL.

In the case of `CC(C)C[C@@H]1NC(=O)[C@H](CC(C)C)N(C)C(=O)[C@H]2CCCN2C(=O)[C@H]2CCCN2C(=O)[C@H](CC(C)C)NC(=O)[C@@H](CC(C)C)N(C)C(=O)[C@@H](C)NC(=O)[C@@H](CC(C)C)N(C)C(=O)[C@H]2CCCN2C(=O)[C@@H](CC(C)C)NC(=O)[C@@H](C)N(C)C1=O` [Design D11.15, Lpp*LL*alp*la*l] (cyclo(L[dNMeA][dL][dP][dNMeL][dA][dNMeL]L[dP][dP][NMeL])), the “PAMPA_Papp_Avg (apparent permeability)” value in data set [6] was 12.9 nm/s.

On to `CC[C@H](C)[C@@H]1NC(=O)[C@H](C(C)C)NC(=O)[C@@H](CC(C)C)N(C)C(=O)[C@H](Cc2ccccc2)NC(=O)[C@@H](CC(C)C)N(C)C(=O)[C@@H](C)N(C)C(=O)[C@H]2CCCN2C(=O)[C@@H]2CCCN2C(=O)[C@H](CC(C)C)NC(=O)[C@@H](C)N(C)C(=O)[C@@H]2CCCN2C1=O` [Design D11.20, P*aLPp*a*lF*lVI] (cyclo(F[dNMeL]VIP[dNMeA]LP[dP][dNMeA][dNMeL])), for which the Papp in data set [1] is 11 nm/s.

On to `CC[C@H](C)[C@@H]1NC(=O)[C@@H]2CCCN2C(=O)[C@H]2CCCN2C(=O)[C@@H](Cc2ccccc2)NC(=O)[C@@H](CC(C)C)N(C)C(=O)[C@H](C(C)C)NC(=O)[C@@H](CC(C)C)NC(=O)[C@@H]2CCCN2C(=O)[C@H]2CCCN2C(=O)[C@@H](C)N(C)C(=O)[C@H](C(C)C)N(C)C1=O` [Design D11.21, PI*V*apPlV*lfp] (cyclo(I[NMeV][dNMeA][dP]P[dL]V[dNMeL][dF][dP]P)), for which the apparent permeability coefficient (Papp) in data set [1] came to 2.06 nm/s.

`CC(C)C[C@H]1NC(=O)[C@@H](C)NC(=O)[C@@H](C)NC(=O)[C@H]2CCCN2C(=O)[C@@H]2CCCN2C(=O)[C@H]2CCCN2C(=O)[C@@H](C)NC(=O)[C@@H](Cc2ccccc2)N(C)C(=O)[C@H]2CCCN2C(=O)[C@@H](CC(C)C)NC(=O)[C@@H](CC(C)C)NC1=O` [Design D11.25, lp*fapPpaall] (cyclo([dP][dA][dA][dL][dL][dL][dP][dNMeF][dA][dP]P)): the Papp in data set [1] stood at 4.17 nm/s.

With `CC[C@H](C)[C@@H]1NC(=O)[C@H](Cc2ccccc2)N(C)C(=O)[C@H]2CCCN2C(=O)[C@H]([C@@H](C)CC)NC(=O)[C@@H](C)N(C)C(=O)[C@@H](C)NC(=O)[C@@H]2CCCN2C(=O)[C@H]2CCCN2C(=O)[C@H](CC(C)C)NC(=O)[C@@H](CC(C)C)NC(=O)[C@H](CC(C)C)NC(=O)[C@H]2CCCN2C1=O` [Design D12.6, p*FIpLILpPa*aI] (cyclo([dA][dNMeA]I[dP][NMeF]I[dP]L[dL]L[dP]P)), the apparent permeability coefficient (Papp) in data set [1] was 13.9 nm/s.

Regarding `CC(C)C[C@@H]1C(=O)N(C)[C@@H](Cc2ccccc2)C(=O)N[C@@H](C(C)C)C(=O)N2CCC[C@H]2C(=O)NCC(=O)N2CCC[C@H]2C(=O)N(C)[C@H](CC(C)C)C(=O)N[C@@H](C(C)C)C(=O)N[C@H](CC(C)C)C(=O)N1C` [SEQ ID NO 69, *lvl*l*FVPGP] (cyclo(GP[dNMeL]V[dL][dNMeL][NMeF]VP)), the apparent permeability coefficient (Papp) in data set [1] is 9.46 nm/s.

As to `CC[C@@H](C)[C@H]1NC(=O)[C@H](CC(C)C)N(C)C(=O)[C@H]2CCCN2C(=O)[C@H](CC(C)C)NC(=O)[C@@H](Cc2ccccc2)N(C)C(=O)[C@H](CC(C)C)N(C)C(=O)[C@@H](C(C)C)NC(=O)[C@H](C)NC(=O)[C@H]2CCCN2C(=O)[C@@H]2CCCN2C1=O` [SEQ ID NO 94, *L*fLp*LiPpAv] (cyclo(A[dV][NMeL][dNMeF]L[dP][NMeL][dI]P[dP])), the Papp in data set [1] was 26.9 nm/s.

Turning to `CC(C)C[C@@H]1NC(=O)[C@@H]2CCCN2C(=O)[C@@H](Cc2ccccc2)NC(=O)[C@H](C)N(C)C(=O)[C@H](CC(C)C)NC(=O)[C@H](CC(C)C)N(C)C(=O)[C@@H](C)NC(=O)[C@@H](CC(C)C)NC(=O)[C@@H]2CCCN2C(=O)[C@@H](Cc2ccccc2)NC1=O` [SEQ ID NO 108, LfPla*LL*AfP] (cyclo(L[NMeA][dF]PL[dF]P[dL][dA][NMeL])), the apparent permeability coefficient (Papp) in data set [1] was determined as 39.2 nm/s.

Turning to `CC[C@@H](C)[C@H]1NC(=O)[C@@H](CC(C)C)N(C)C(=O)[C@@H]2CCCN2C(=O)[C@H](C(C)C)NC(=O)[C@@H](C)N(C)C(=O)[C@@H]2CCCN2C(=O)[C@@H](CC(C)C)NC(=O)[C@@H](C(C)C)N(C)C(=O)[C@@H]2CCCN2C(=O)[C@H](C)NC(=O)[C@H](C(C)C)NC(=O)[C@@H]2CCCN2C1=O` [SEQ ID NO 117, VP*liPVAP*vlP*a] (cyclo(AP[dNMeV][dL]P[dNMeA]VP[dNMeL][dI]PV)), in data set [6], the “PAMPA_Papp_Avg (apparent permeability)” value turned out to be 1 nm/s.
